From patent US20250179103A1, “6-OXODECAHYDROPYRROLO[1,2-A][1,5]DIAZOCINE AND 6-OXODECAHYDRO-4H-PYRROLO[2,1-D][1,5]THIAZOCINE DERIVATIVES AS STAT3 AND STAT6 MODULATORS FOR THE TREATMENT OF CANCER AND INFLAMMATORY CONDITIONS” (Recludix Pharma, Inc., priority 2022, published 2025) come the findings set out here.

Test [1] addresses T1, Recombinant STAT3 protein (STAT3(G127-I722)) (Homo sapiens, UniProt P40763).
T1 construct: Recombinant STAT3 protein (STAT3(G127-I722))
The test can be described thus: STAT3 Fluorescence Polarization (FP) Assay. Format: binding. Conditions: STAT3(G127-I722) 25 nM, probe 5-FAM-GpYLPQTV-NH2 2 nM, 45-minute incubation. Put shortly: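 Fluorescence polarization after a 45-min room-temperature incubation measured compound displacement of a 2 nM fluorescein-labelled phosphotyrosine peptide (5-FAM-GpYLPQTV-NH2) from 25 nM recombinant STAT3(G127-I722). Buffer was 10 mM HEPES pH 7.4 with 1% DMSO final. IC50s were fitted by nonlinear regression of mP against log concentration.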

Test [2] has as its target T2, Recombinant STAT6 protein (STAT6(W123-T658)) (Homo sapiens, UniProt P42226).
T2 construct: Recombinant STAT6 protein (STAT6(W123-T658))
T2 sequence (P42226 123-658): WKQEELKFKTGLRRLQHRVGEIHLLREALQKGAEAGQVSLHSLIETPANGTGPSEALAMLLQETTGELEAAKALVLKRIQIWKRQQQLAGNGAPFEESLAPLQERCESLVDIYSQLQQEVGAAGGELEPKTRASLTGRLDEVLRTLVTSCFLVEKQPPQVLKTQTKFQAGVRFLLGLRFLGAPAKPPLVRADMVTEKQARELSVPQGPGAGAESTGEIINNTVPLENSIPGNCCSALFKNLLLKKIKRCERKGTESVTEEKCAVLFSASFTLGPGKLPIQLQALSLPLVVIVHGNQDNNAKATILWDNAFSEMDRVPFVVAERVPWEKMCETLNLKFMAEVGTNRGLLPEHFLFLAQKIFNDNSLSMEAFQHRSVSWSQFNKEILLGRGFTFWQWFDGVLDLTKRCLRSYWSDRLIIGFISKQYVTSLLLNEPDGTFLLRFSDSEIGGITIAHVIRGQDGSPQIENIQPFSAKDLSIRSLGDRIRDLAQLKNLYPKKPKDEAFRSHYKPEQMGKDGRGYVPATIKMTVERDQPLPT
As to the kind of experiment: STAT6 Fluorescence Polarization (FP) Assay. Format: binding. To be noted: STAT6(W123-T658) 250 nM, probe 5-FAM-ApYKPFQDLI-NH2 2 nM, 45-minute incubation. Put shortly: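 Displacement of a fluorescent phosphotyrosine peptide (5-FAM-ApYKPFQDLI-NH2, 2 nM) from STAT6(W123-T658) (250 nM), 1% DMSO, pH 7.4 HEPES buffer. After 45 min at room temperature, polarization (mP) was plotted versus log compound concentration and fitted by nonlinear regression to give IC50.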

T1 sequence (P40763 127-722): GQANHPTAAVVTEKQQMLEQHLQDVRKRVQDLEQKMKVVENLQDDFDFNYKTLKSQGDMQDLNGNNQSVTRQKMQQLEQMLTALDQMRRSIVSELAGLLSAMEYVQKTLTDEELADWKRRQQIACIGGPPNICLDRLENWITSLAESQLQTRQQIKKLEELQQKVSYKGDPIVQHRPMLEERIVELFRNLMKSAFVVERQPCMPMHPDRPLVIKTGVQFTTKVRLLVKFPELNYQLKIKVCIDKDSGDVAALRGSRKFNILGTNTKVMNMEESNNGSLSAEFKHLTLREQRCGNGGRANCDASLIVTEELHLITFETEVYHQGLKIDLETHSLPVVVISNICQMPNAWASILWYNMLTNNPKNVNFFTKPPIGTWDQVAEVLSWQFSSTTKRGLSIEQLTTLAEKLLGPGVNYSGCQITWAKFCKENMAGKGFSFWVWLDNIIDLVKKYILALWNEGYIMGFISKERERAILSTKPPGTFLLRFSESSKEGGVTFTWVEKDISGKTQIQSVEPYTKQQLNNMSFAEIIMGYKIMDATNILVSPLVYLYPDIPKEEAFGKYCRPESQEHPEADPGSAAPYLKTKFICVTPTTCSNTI

With `CCN1CC[C@H]2CC[C@@H](C(=O)N3CC(C(=O)N4CCOCC4)C3)N2C(=O)[C@@H](NC(=O)c2cc3cc(C(F)(F)P(=O)(O)O)ccc3s2)C1` [Compound 278, ((2-(((5S,8S,10aR)-3-ethyl-8-(3-(morpholine-4-carbonyl)azetidine-1-carbonyl)-6-oxodecahydropyrrolo[1,2-a][1,5]diazocin-5-yl)carbamoyl)benzo[b]thiophen-5-yl)difluoromethyl)phosphonic acid], the IC50 in test [1] was in the range of 0.1 to 1 µM; in test [2] it was 3 to 30 µM.
The matching figures for `CC(=O)N1CC[C@H]2CC[C@@H](C(=O)N3CCN(Cc4ccccc4)C(C#N)C3)N2C(=O)[C@@H](NC(=O)c2cc3cc(C(F)(F)P(=O)(O)O)ccc3s2)C1` (stereo partly drawn) [Compound 62, ((2-(((5S,8S,10aR)-3-acetyl-8-(4-benzyl-3-cyanopiperazine-1-carbonyl)-6-oxodecahydropyrrolo[1,2-a][1,5]diazocin-5-yl)carbamoyl)benzo[b]thiophen-5-yl)difluoromethyl)phosphonic acid]: 1 to 10 µM and 0.3 to 3 µM.
The matching figures for `CC(=O)N1CC[C@H]2CC[C@@H](C(=O)N(C)CC(C)C#N)N2C(=O)[C@@H](NC(=O)c2cc3cc(C(F)(F)P(=O)(O)O)ccc3s2)C1` (stereo partly drawn) [Compound 89, ((2-(((5S,8S,10aR)-3-acetyl-8-((2-cyanopropyl)(methyl)carbamoyl)-6-oxodecahydropyrrolo[1,2-a][1,5]diazocin-5-yl)carbamoyl)benzo[b]thiophen-5-yl)difluoromethyl)phosphonic acid]: 1 to 10 µM and 0.3 to 3 µM.
`Cc1ccc2onc(C(=O)N3CC[C@H]4CC[C@@H](C(=O)N5CCOCC5)N4C(=O)[C@@H](NC(=O)c4ccc5cnc(CP(=O)(O)O)cc5c4)C3)c2c1` [Compound 394, ((6-(((5S,8S,10aR)-3-(5-methylbenzo [d]isoxazole-3-carbonyl)-8-(morpholine-4-carbonyl)-6-oxodecahydropyrrolo [1,2-a][1,5]diazocin-5-yl)carbamoyl)isoquinolin-3-yl)methyl) phosphonic acid]: the IC50 was over 10 µM in test [1] and 3 to 30 µM in test [2].
Consider `CC(=O)N1CC[C@H]2CC[C@@H](C(=O)N3C[C@@H](C#N)[C@H](c4ccccc4)C3)N2C(=O)[C@@H](NC(=O)c2cc3cc(C(F)(F)P(=O)(O)O)ccc3s2)C1` (single isomer, unassigned) [Compound 52, ((2-(((5S,8S,10aR)-3-acetyl-8-((3S,4R or 3R,4S)-3-cyano-4-phenylpyrrolidine-1-carbonyl)-6-oxodecahydropyrrolo[1,2-a][1,5]diazocin-5-yl)carbamoyl)benzo[b]thiophen-5-yl)difluoromethyl)phosphonic acid], for which the IC50 in test [1] is 1 to 10 µM; in test [2] it was at most 0.3 µM.
The matching figures for `CCN1CC[C@H]2CC[C@@H](C(=O)N3C[C@@H](C#N)[C@H](c4ccccc4)C3)N2C(=O)[C@@H](NC(=O)c2ccc3ccc(C(F)(F)P(=O)(O)O)cc3c2)C1` (single isomer, unassigned) [Compound 243, ((7-(((5S,8S,10aR)-8-((3S,4R or 3R,4S)-3-cyano-4-phenylpyrrolidine-1-carbonyl)-3-ethyl-6-oxodecahydropyrrolo[1,2-a][1,5]diazocin-5-yl)carbamoyl)naphthalen-2-yl)difluoromethyl)phosphonic acid]: 1 to 10 µM and 0.3 to 3 µM.
For `CC(=O)N[C@H]1CCC[C@@H]1NC(=O)[C@@H]1CC[C@@H]2CCN(C(C)=O)C[C@H](NC(=O)c3cc4cc(C(F)(F)P(=O)(O)O)ccc4[nH]3)C(=O)N21` [Compound 32, ((2-(((5S,8S,10aR)-8-(((1S,2S)-2-acetamidocyclopentyl)carbamoyl)-3-acetyl-6-oxodecahydropyrrolo[1,2-a][1,5]diazocin-5-yl)carbamoyl)-1H-indol-5-yl)difluoromethyl)phosphonic acid], in that order: 1 to 10 µM and 3 to 30 µM.
For `CC(=O)N1CC[C@H]2CC[C@@H](C(=O)N(C)c3ccccc3)N2C(=O)[C@@H](NC(=O)c2cc3cc(C(F)(F)P(=O)(O)O)ccc3[nH]2)C1` [Compound 30], the results for the 50% inhibitory concentration (IC50) in test [1] and in test [2] were 1 to 10 µM and 0.3 to 3 µM, respectively.
On to `Cc1ccc2onc(C(=O)N3CC[C@H]4CC[C@@H](C(=O)N5C[C@@H](c6cc[nH]c(=O)c6)CC56CC6)N4C(=O)[C@@H](NC(=O)c4ccc5ccc(C(F)(F)P(=O)(O)O)cc5c4)C3)c2c1` [Compound 385, (difluoro(7-(((5S,8S, 10aR)-3-(5-methyl-benzo[d]isoxazole-3-carbonyl)-6-oxo-8-((R)-6-(2-oxo-1,2-dihydro-pyridin-4-yl)-4-azaspiro [2.4]heptane-4-carbonyl)decahydro-pyrrolo[1,2-a][1,5]diazocin-5-yl)carbamoyl)naphthalen-2-yl)methyl) phosphonic acid], for which the half-maximal inhibitory concentration (IC50) is 1 to 10 µM in test [1] and at most 0.3 µM in test [2].
The matching figures for `CC(=O)N1CC[C@H]2CC[C@@H](C(=O)Nc3ccc4nnccc4c3)N2C(=O)[C@@H](NC(=O)c2cc3cc(C(F)(F)P(=O)(O)O)ccc3s2)C1` [Compound 174, ((2-(((5S,8S,10aR)-3-acetyl-8-(cinnolin-6-ylcarbamoyl)-6-oxodecahydropyrrolo[1,2-a][1,5]diazocin-5-yl)carbamoyl)benzo[b]thiophen-5-yl)difluoromethyl)phosphonic acid]: 0.1 to 1 µM and at most 0.3 µM.
With `CC(=O)N1CC[C@H]2CC[C@@H](C(=O)N3CCC[C@@H](c4ccccc4)C3)N2C(=O)[C@@H](NC(=O)c2cc3cc(C(F)(F)P(=O)(O)O)ccc3[nH]2)C1` [Compound 107, ((2-(((5S,8S,10aR)-3-acetyl-6-oxo-8-((S)-3-phenylpiperidine-1-carbonyl)decahydropyrrolo[1,2-a][1,5]diazocin-5-yl)carbamoyl)-1H-indol-5-yl)difluoromethyl)phosphonic acid], the IC50 in test [1] is 1 to 10 µM; in test [2], at most 0.3 µM.
On to `Cc1ccc2onc(C(=O)N3CC[C@H]4CC[C@@H](C(=O)N5CCN(c6nsc7ccccc67)CC5)N4C(=O)[C@@H](NC(=O)c4ccc5ccc(C(F)P(=O)(O)O)cc5c4)C3)c2c1` (stereo partly drawn) [Compound 369, ((7-(((5S,8S,10aR)-8-(4-(benzo[d]isothiazol-3-yl)piperazine-1-carbonyl)-3-(5-methylbenzo[d]isoxazole-3-carbonyl)-6-oxodecahydropyrrolo [1,2-a][1,5]diazocin-5-yl)carbamoyl)naphthalen-2-yl)fluoromethyl) phosphonic acid], for which the figures for the IC50 in test [1] and in test [2] were 1 to 10 µM and at most 0.3 µM, respectively.
The matching figures for `CCN1CC[C@H]2CC[C@@H](C(=O)N3C[C@@H](C#N)[C@H](c4cc[nH]c(=O)c4)C3)N2C(=O)[C@@H](NC(=O)c2ccc3ccc(C(F)(F)P(=O)(O)O)cc3c2)C1` (relative stereo) [Compound 240, ((7-(((5S,8S,10aR)-8-((rel-trans)-3-cyano-4-(2-oxo-1,2-dihydropyridin-4-yl)pyrrolidine-1-carbonyl)-3-ethyl-6-oxodecahydropyrrolo[1,2-a][1,5]diazocin-5-yl)carbamoyl)naphthalen-2-yl)difluoromethyl)phosphonic acid]: 1 to 10 µM and 0.3 to 3 µM.
For `N#C[C@H]1CN(C(=O)[C@@H]2CC[C@@H]3CCN(CC(F)F)C[C@H](NC(=O)c4ccc5ccc(C(F)(F)P(=O)(O)O)cc5c4)C(=O)N32)CC[C@@H]1c1ccccc1` (relative stereo) [Compound 241, ((7-(((5S,8S,10aR)-8-((rel-trans)-3-cyano-4-phenylpiperidine-1-carbonyl)-3-(2,2-difluoroethyl)-6-oxodecahydropyrrolo[1,2-a][1,5]diazocin-5-yl)carbamoyl)naphthalen-2-yl)difluoromethyl)phosphonic acid], in that order: 1 to 10 µM and 0.3 to 3 µM.
For `CCC(=O)NCCCN(C)C(=O)[C@@H]1CC[C@@H]2CCN(C(C)=O)C[C@H](NC(=O)c3cc4cc(C(F)(F)P(=O)(O)O)ccc4[nH]3)C(=O)N21` [Compound 28, ((2-(((5S,8S,10aR)-3-acetyl-8-(methyl(3-propionamidopropyl)carbamoyl)-6-oxodecahydropyrrolo[1,2-a][1,5]diazocin-5-yl)carbamoyl)-1H-indol-5-yl)difluoromethyl)phosphonic acid], in that order: 1 to 10 µM and 0.3 to 3 µM.
